{
  "source": "patent US11226337B2",
  "about": "“Chemoproteomic profiling of protein electrophilic and oxidative post-translational modifications” (Zenagem, LLC, priority 2017, dated 2022)",
  "experiment_in_all_cases": "SILAC RP-ABPP",
  "assay_type_in_all_cases": "cell-based",
  "key": {"[1]": {"target": "T1, APLP2 Amyloidlike protein 2 (Q06481) (Homo sapiens, UniProt Q06481)", "T1 construct": "shared by both the endogenous and recombinant forms of these proteins; endogenous in cells; host or cells: HEK293T and MDA-MB-231", "T1 sequence (Q06481 32-763)": "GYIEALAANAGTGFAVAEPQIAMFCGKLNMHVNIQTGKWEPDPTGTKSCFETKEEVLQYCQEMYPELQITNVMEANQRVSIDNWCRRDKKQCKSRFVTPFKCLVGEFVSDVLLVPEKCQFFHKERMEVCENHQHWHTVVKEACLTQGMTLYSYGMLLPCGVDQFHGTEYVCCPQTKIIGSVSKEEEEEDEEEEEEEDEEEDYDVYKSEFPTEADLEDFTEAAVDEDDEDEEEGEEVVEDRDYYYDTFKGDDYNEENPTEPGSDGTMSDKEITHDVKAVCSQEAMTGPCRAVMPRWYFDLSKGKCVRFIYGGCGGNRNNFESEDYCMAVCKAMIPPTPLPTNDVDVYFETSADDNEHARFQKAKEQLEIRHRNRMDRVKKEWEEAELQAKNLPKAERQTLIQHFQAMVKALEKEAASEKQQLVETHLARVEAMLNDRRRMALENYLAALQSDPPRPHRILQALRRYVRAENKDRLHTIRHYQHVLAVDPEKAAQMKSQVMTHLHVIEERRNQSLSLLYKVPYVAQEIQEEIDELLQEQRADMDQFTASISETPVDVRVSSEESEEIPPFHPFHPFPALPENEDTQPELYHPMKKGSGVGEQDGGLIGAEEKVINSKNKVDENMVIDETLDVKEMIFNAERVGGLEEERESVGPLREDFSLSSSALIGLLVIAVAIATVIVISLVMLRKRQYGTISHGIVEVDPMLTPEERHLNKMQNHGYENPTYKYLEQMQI", "conditions": "SILAC H/L"}, "[2]": {"target": "T2, EPDR1 Mammalian ependyminrelated (Q9UM22) (Homo sapiens, UniProt Q9UM22)", "T2 construct": "shared by both the endogenous and recombinant forms of these proteins; endogenous in cells; host or cells: HEK293T and MDA-MB-231", "T2 sequence (Q9UM22 38-224)": "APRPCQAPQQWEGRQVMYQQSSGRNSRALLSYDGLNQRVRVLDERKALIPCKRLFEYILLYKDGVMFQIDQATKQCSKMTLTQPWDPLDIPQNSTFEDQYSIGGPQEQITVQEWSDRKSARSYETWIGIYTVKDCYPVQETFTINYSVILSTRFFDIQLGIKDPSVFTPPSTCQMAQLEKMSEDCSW", "conditions": "SILAC H/L, MDA-MB-231"}, "[3]": {"target": "T3, LIPA Lysosomal acid lipase/cholesteryl ester (P38571) (Homo sapiens, UniProt P38571)", "T3 construct": "In Situ Labelling of Cells with Hydrazine Probes for MS Experiments; endogenous in cells", "T3 sequence (P38571 77-399)": "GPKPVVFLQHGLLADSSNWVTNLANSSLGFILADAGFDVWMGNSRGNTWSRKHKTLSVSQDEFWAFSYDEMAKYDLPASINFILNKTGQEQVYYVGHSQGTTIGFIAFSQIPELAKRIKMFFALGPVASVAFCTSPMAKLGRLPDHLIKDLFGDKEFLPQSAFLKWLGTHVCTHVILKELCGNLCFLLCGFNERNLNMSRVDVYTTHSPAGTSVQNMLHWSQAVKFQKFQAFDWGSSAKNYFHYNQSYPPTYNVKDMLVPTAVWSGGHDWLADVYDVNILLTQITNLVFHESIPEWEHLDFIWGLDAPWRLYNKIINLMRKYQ", "conditions": "SILAC H/L, MDA-MB-231"}, "[4]": {"target": "T4, PLOD3 Procollagenlysine, 2oxoglutarate (O60568) (Homo sapiens, UniProt O60568)", "T4 construct": "In Situ Labelling of Cells with Hydrazine Probes for MS Experiments; endogenous in cells; host or cells: HEK293T and MDA-MB-231", "T4 sequence (O60568 25-738)": "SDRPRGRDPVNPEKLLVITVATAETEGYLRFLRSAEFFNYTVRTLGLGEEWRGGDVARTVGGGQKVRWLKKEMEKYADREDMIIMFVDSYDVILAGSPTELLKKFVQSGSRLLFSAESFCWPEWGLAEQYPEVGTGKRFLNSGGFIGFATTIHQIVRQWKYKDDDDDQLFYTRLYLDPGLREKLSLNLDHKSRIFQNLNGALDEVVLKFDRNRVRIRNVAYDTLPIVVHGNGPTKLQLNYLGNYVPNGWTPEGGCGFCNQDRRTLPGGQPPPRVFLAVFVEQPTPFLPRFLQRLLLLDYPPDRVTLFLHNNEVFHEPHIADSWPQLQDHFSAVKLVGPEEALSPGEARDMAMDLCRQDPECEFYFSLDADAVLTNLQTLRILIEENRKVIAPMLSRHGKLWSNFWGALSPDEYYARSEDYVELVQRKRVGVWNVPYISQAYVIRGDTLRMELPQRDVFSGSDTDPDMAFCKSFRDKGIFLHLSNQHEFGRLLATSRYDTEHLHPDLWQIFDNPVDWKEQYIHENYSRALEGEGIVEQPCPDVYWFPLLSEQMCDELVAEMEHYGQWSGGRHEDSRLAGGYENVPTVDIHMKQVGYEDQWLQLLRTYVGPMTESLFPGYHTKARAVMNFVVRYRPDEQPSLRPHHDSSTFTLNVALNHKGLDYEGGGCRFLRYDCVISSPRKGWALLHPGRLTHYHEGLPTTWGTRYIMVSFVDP", "conditions": "SILAC H/L"}, "[5]": {"conditions": "probe 1 3 mM 0.5 h vs probe 3, MDA-MB-231"}, "[6]": {"conditions": "probe 1 vs probe 1+10x probe 3, MDA-MB-231"}},
  "data": [
    {"smiles": "C#CCNN.Cl", "note": "[probe 1, prop-2-yn-1-ylhydrazine hydrochloride]", "values": [
      {"measurement": "enrichment ratioavg", "setting": "[1]; [5]", "value": 19},
      {"measurement": "competition ratioavg", "setting": "[1]; [6]", "value": 7},
      {"measurement": "enrichment ratioavg", "setting": "[2]; probe 1 3 mM 0.5 h vs probe 3", "value": 20},
      {"measurement": "competition ratioavg", "setting": "[2]; probe 1 vs probe 1+10x probe 3", "value": 20},
      {"measurement": "enrichment ratioavg", "setting": "[3]; probe 1 3 mM 0.5 h vs probe 3", "value": 7},
      {"measurement": "competition ratioavg", "setting": "[3]; probe 1 vs probe 1+10x probe 3", "value": 4},
      {"measurement": "enrichment ratioavg", "setting": "[4]; [5]", "value": 14},
      {"measurement": "competition ratioavg", "setting": "[4]; [6]", "value": 2}
    ]},
    {"smiles": "C#CCCNC(=O)c1ccc(NN)cc1.Cl", "note": "[probe 2, N-(but-3-yn-1-yl)-4-hydrazinylbenzamide hydrochloride]", "values": [
      {"measurement": "enrichment ratioavg", "setting": "[1]; probe 2 1 mM 0.5 h vs probe 4, single experiment, cell line not given", "value": 20},
      {"measurement": "enrichment ratioavg", "setting": "[2]; probe 2 1 mM 0.5 h vs probe 4", "value": 20},
      {"measurement": "competition ratioavg", "setting": "[2]; probe 2 vs probe 2+10x probe 4", "value": 5},
      {"measurement": "enrichment ratioavg", "setting": "[3]; probe 2 1 mM 0.5 h vs probe 4", "value": 17},
      {"measurement": "competition ratioavg", "setting": "[3]; probe 2 vs probe 2+10x probe 4", "value": 3},
      {"measurement": "enrichment ratioavg", "setting": "[4]; probe 2 1 mM 0.5 h vs probe 4, HEK293T", "value": 20},
      {"measurement": "competition ratioavg", "setting": "[4]; probe 2 vs probe 2+10x probe 4, HEK293T", "value": 6}
    ]}
  ]
}
